Results taken from publication PMC3678964 (Journal of medicinal chemistry, 2012).

molecular target: T1, transmembrane domain-deleted rat FAAH (ΔTM rFAAH) (Rattus norvegicus, UniProt P97612); conditions: phenyl ring substitution of phenylheptyl template 11e
T1 sequence (P97612 30-579 limits assumed): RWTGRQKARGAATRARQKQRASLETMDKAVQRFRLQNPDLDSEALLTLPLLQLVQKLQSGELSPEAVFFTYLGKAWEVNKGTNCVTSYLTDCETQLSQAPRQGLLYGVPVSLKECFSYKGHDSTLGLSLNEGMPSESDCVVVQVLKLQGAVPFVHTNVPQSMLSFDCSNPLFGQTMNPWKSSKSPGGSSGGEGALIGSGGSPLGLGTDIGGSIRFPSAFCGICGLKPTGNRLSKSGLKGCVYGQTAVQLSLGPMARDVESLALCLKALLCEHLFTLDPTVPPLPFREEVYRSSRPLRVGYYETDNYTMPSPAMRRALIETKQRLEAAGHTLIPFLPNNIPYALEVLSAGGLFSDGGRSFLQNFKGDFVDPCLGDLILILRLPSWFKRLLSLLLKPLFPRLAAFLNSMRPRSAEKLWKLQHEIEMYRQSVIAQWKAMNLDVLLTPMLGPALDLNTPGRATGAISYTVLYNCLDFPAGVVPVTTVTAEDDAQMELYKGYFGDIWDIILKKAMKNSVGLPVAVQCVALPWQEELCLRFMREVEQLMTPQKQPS

SMILES	increase in FAAH inhibitory potency relative to 11e
O=S(=O)(F)CCCCCCCc1ccccc1OCc1ccccc1 [20c, 7-(2-Benzyloxyphenyl)heptanesulfonyl fluoride]	9-10 fold
O=S(=O)(F)CCCCCCCc1cccc(O)c1 [21b, 7-(3-Hydroxyphenyl)heptanesulfonyl fluoride]	15- to 31 fold
O=S(=O)(F)CCCCCCCc1ccccc1O [21c, 7-(2-Hydroxyphenyl)heptanesulfonyl fluoride]	15- to 31 fold
